One experiment concerns GH3 cells. Put plainly: T3 treatment of GH3 cells transfected with human prepro-TRH: TRH mRNA expression. The experiment is classed as cell-based, rat. The following applies: 1-100 nM.
In experiment [1] the test system is SCW-induced inflammatory response. The following applies: Rittenhouse et al., 1995; cited from earlier work.
The test system is the same in experiment [2]. Kind of experiment: Thyroid status and SCW-induced inflammatory response in female rats. The experiment is classed as in vivo, rat. An excerpt: RA is an autoimmune disease characterized by chronic degradation of the joints resulting from inflammation of synovial membranes. SCW-induced inflammation in the autoimmune prone female Lewis rat is an accepted animal model for the study of RA. […] It is likely that increased thyroid activity decreases the susceptibility to inflammatory immune disease by increasing glucocorticoid levels. The discovery of CRIF encoded within the same precursor as TRH establishes a direct link between the HPA and thyroid axes. Thyroid hormones may play a fundamental role in regulating the HPA axis by modulation of levels of prepro-TRH mRNA.
To determine the role played by thyroid hormones and concomitant changes in the HPA axis in the development of SCW-induced inflammatory response, expression of genes which reflect the status of thyroid function (TRH), pituitary-adrenal activity (POMC) and inflammation (IL-1β and MIP-1α, a macrophage specific inflammatory protein) was measured. Adult female rats were fed a regular diet (control), or a regular diet plus 0.012% T4 (hyperthyroid) or 0.05% 6-propyl-thiouracil (PTU) supplied in the in drinking water (hypothyroid), for seven weeks. A preparation of SCW (20 μg/g of body weight) was administered intraperitoneally to the rats three days before decapitation. Anterior pituitary POMC, hypothalamic TRH and peritoneal macrophage IL-1β and MIP-1α mRNA levels were assessed by Northern blot hybridization analysis using specific cDNA probes. The levels of mRNA were normalized to the housekeeping gene, GAPD, and were quantified by image analysis densitometry. Plasma levels of TSH and CORT were determined by RIA.

For the next experiment, the system named is AtT-20 cells. Kind of experiment: Transfection of AtT-20 cells with prepro-TRH expression plasmids: ACTH secretion (RIA). Type of experiment: cell-based, mouse. Particulars: concluded from deletion studies and known prepro-TRH processing. An excerpt: The expression vector pCMV-TRH comprises cDNA encoding rat TRH under the control of the human cytomegalovirus (HCMV) immediate early promoter (Lee et al., 1988, J. Biol. Chem. 263:16604-16609). To generate this vector, a 1,322 bp fragment comprising sequences encoding TRH was excised from the plasmid pSP64, by digestion with HindIII and EcoRI. This fragment was then inserted into pcDNA-3 (Invitrogen, San Diego, Calif.) to generate pCMV-TRH comprising the HCMV immediate early promoter, the bovine growth hormone polyadenylation signal and cDNA encoding TRH inserted therebetween. This plasmid also contains sequences encoding resistance to neomycin and can therefore be used to select stably transfected cells.
Referring to FIG. 1, two deletions were made in the expression vector pCMV-TRH. The first deletion, ΔBstEII, contains a deletion between nucleotides 506 and 787 in TRH cDNA. […] To generate ΔBstEII, pCMV-TRH was digested with BstEII, and a 6.4 kb fragment was isolated therefrom. The 5′ sticky ends were filled in with Klenow to create blunt ends, and the 6.4 kb fragment was then religated to form ΔBstEII. This religation results in restoration of the original wild type reading frame. […]
ACTH-like immunoreactivity was measured using an antiserum which reacts with amino acids 1-24 and 1-39 on ACTH on an equimolar basis. […]

Data on three molecules can be found in patent publication US6348571B1, “Corticotropin release inhibiting factor and methods of using same” (Northwestern University, priority 1994, dated 2002).

With `N[C@@H](Cc1cc(I)c(Oc2ccc(O)c(I)c2)c(I)c1)C(=O)O` [T3], the “expression of TRH mRNA” value in the experiment with GH3 cells is “suppressing expression of TRH mRNA”.

Take `N[C@@H](Cc1cc(I)c(Oc2cc(I)c(O)c(I)c2)c(I)c1)C(=O)O` [T4, thyroxin]: in experiment [1], the “inflammatory effects of SCW-induced autoimmune responses” value was “decreases the adverse inflammatory effects”. The “increase in macrophage MIP-1α mRNA levels on SCW administration” value in experiment [2] (SCW 20 μg/g ip, SCW-administered control rats 17-fold) is 1.7 fold. In addition, the “plasma CORT levels” value in experiment [2] (altered thyroid status, FIG. 12E) is “significant increase”. Further, in experiment [2] (hyperthyroid group, 0.012% in diet, seven weeks), the “decrease of hypothalamic TRH mRNA levels” value came to 20%.

“prepro-TRH 172-199: includes the uncleaved fourth TRH portion covalently bound to the amino terminal portion of peptide 178-199 (QHPGRRFIDPELQRSWEEKEGEGVLMPE; UniProt P01150 172-199, looked up, fragment)”: the CRIF activity entry with AtT-20 cells is listed as “has CRIF activity”.
